Here are results for 5 compounds from US8106089B2, “Anti-tubulin acting arylpyrrol, arylfuran and arylthiophene derivatives, method for the preparation thereof and for the use thereof as an antimitotic” (Centre National de la Recherche, priority 2004, dated 2012).

Holding throughout (format): cell-based
The test system of assay [1] is L1210 mouse leukemia cells. Put plainly: MTT test, cell growth. To be noted: mean ± sd of 3 experiments in triplicate, read-out: IC50 (concentration that inhibits 50% of cell growth) ± sd. An excerpt: (§1) Aim: Given the role of tubulin in the formation of the mitotic spindle, we analyzed the effect of the compounds according to the present invention on the cell cycle of the following murine cells using various methods: the murine melanoma tumor cell line, the B16 F1 cell line and the mel a cell line (melanocytes), and the L1210 mouse leukemia cell line.
(§2) We initially evaluated the effect of compounds 17, 18 and 19 on the growth of the three cell lines by a “MTT” test. The principle of the MTT test consists of measuring the activity of mitochondrial succinate dehydrogenase in living cells. This enzyme transforms MTT (3-(4,5-dimethylthiazol-2-yl)-2,5-diphenyltetrazolium bromide), yellow in color, into insoluble purple formazan crystals. After dissolution of the crystals in dimethylsulfoxide (DMSO), absorbance is measured at 540 nm by spectrophotometry. The optical densities obtained are directly proportional to the number of living cells. The cytotoxic effect of a sample is evaluated by the percentage of living cells in the presence of this sample, compared to the cells treated with the solvent alone. This method makes it possible to measure the proportion of living cells in a given cell population. By comparison with untreated cells, we thus determined the concentration of each compound that induces a 50% inhibition of cell growth. The IC50 ranges from 50 μM to 100 μM.
(Tetrazolium assays rely on reduction of a dye to a coloured formazan, in cell work by metabolically active cells.)

The test system of the next assay is B16 F1 cells. In words: MTT test, cell growth. To be noted: Mus musculus, mean ± sd of 3 experiments in triplicate, read-out: IC50 (concentration that inhibits 50% of cell growth) ± sd.
Source text: as §1, §2

The test system of a further assay is mel a melanocytes. In words: MTT test, cell growth. Conditions: Mus musculus, Melanocyte, mean ± sd of 3 experiments in triplicate, read-out: IC50 (concentration that inhibits 50% of cell growth) ± sd.
Source text: as §1, §2

Assay [2] deals with mouse leukemia (L1210) cells. Put plainly: Cell cycle progression, flow cytometry after propidium iodide labeling. To be noted: 24 hours. As to the method:
(§3) In order to approach the mechanism of action of these compounds, we then studied their effect on the progression of the cell cycle in mouse melanoma (B16) cells and mouse leukemia (L1210) cells. For this purpose, we compared the distribution of the treated or untreated cells in each phase of the cycle. […] They then were fixed and made permeable with ethanol. After incubation with propidium iodide, which labels cellular DNA, the DNA content of the cells is then analyzed by flow cytometry.

In assay [3] the test system is mouse melanoma (B16) cells. The description is as above. To be noted: for % of B16 cells in phase G1 / % of B16 cells in phase G2/M / % of B16 cells in phase S: 24 hours. As to the method: as §3

Some results are limits rather than exact numbers.

For `CC(C)c1ccc(CCCO)[nH]1` [Compound 21, 3-(5-Isopropyl-1H-pyrrol-2-yl)-propan-1-ol], the IC50 (in assay [1]; in the assay with B16 F1 cells) was above 400 µM throughout.
With `CC(C)c1cc(-c2ccccc2N)c(CCCO)[nH]1` [Compound 19, 3-[3-(2-Amino-phenyl)-5-isopropyl-1H-pyrrol-2-yl]-propan-1-ol], the IC50 in the assay with mel a melanocytes is 116 ± 3.2 µM. The IC50 in assay [1] was 17.7 ± 4.5 µM. For the same compound, the IC50 in the assay with B16 F1 cells was 107 ± 1.8 µM. Moreover, in assay [2] (50 μM), the “% of L1210 cells in phase G1” value was determined as 49.5%, the “% of L1210 cells in phase G2/M” value came out at 24% and the “% of L1210 cells in phase S” value is on record as 26.5%. In addition, in assay [2] (75 μM), the “% of L1210 cells in phase G1” value is on record as 39.8%, the “% of L1210 cells in phase G2/M” value is 38.8% and the “% of L1210 cells in phase S” value worked out at 21.4%. In addition, in assay [3] (50 μM), the “% of B16 cells in phase G1” value is 78.7%, the “% of B16 cells in phase G2/M” value was determined as 5.2% and the “% of B16 cells in phase S” value was 14.1%. In addition, in assay [3] (75 μM), the “% of B16 cells in phase G1” value was determined as 56.1%, the “% of B16 cells in phase G2/M” value worked out at 31.9% and the “% of B16 cells in phase S” value amounted to 2.8%.
Consider `CC(C)c1cc(-c2ccccc2)c(CCCO)[nH]1` [Compound 18, 3-(5-Isopropyl-3-phenyl-1H-pyrrol-2-yl)-propan-1-ol], for which the IC50 in assay [1] amounted to 33.2 ± 1.3 µM. For the same compound, the IC50 in the assay on B16 F1 cells was determined as 171 ± 10.8 µM. In addition, in assay [2] (40 μM), the “% of L1210 cells in phase G1” value is 32.7%, the “% of L1210 cells in phase G2/M” value came out at 12.6% and the “% of L1210 cells in phase S” value stood at 54.7%. Also, in assay [2] (55 μM), the “% of L1210 cells in phase G1” value is given as 30.9%, the “% of L1210 cells in phase G2/M” value was 21.9% and the “% of L1210 cells in phase S” value was 47.2%. In addition, in assay [3] (75 μM), the “% of B16 cells in phase G1” value is 65.0%, the “% of B16 cells in phase G2/M” value was determined as 12.1% and the “% of B16 cells in phase S” value came out at 11.3%. In assay [3] (125 μM), the “% of B16 cells in phase G1” value is on record as 50.0%, the “% of B16 cells in phase G2/M” value was found to be 32.0% and the “% of B16 cells in phase S” value is listed as 5.2%. For the same compound, in assay [3] (150 μM), the “% of B16 cells in phase G1” value is listed as 42.1%, the “% of B16 cells in phase G2/M” value stood at 36.0% and the “% of B16 cells in phase S” value was 21.8%.
Turning to `CC(C)c1cc(-c2ccccc2N)c(CCCO)n1C(=O)OC(C)(C)C` [Compound 17, 3-(2-Amino-phenyl)-2-(3-hydroxy-propyl)-5-isopropyl-pyrrole-1-carboxylic acid tert-butyl ester], the IC50 in the assay on mel a melanocytes was determined as 69.7 ± 0.9 µM; in assay [1], 53.7 ± 0.7 µM; in the assay on B16 F1 cells, 88.7 ± 7.6 µM. Besides, the “% of L1210 cells in phase G1” value in assay [2] (40 μM) came out at 54.9%; in assay [2] (50 μM), 39.2%. Also, the “% of L1210 cells in phase G2/M” value in assay [2] (40 μM) is given as 23.2%; in assay [2] (50 μM), 43.6%. For the same compound, the entries for the “% of L1210 cells in phase S” value in assay [2] (40 μM) and in assay [2] (50 μM) were 21.9% and 17.2%, respectively. Besides, the “% of B16 cells in phase G1” value in assay [3] (50 μM) was 58.0%; in assay [3] (70 μM), 40.8%; in assay [3] (100 μM) it was 43.3%. Further, the “% of B16 cells in phase G2/M” value in assay [3] (50 μM) is given as 25.4%; in assay [3] (70 μM) it was 22.3%; in assay [3] (100 μM) it was 16.5%. In addition, the “% of B16 cells in phase S” value in assay [3] (50 μM) was found to be 16.6%; in assay [3] (70 μM), 37%; in assay [3] (100 μM), 40.3%.
`CC(C)[C@@H](C=O)NC(=O)OC(C)(C)C` [compound 2, (S)—N-(tert-Butoxycarbonyl)valinal]: the “higher proportion of cells in phase G2/M versus control” value in assay [3] (concentrations near IC50 or higher, cell line not stated) is “approximately 3 times”.
